Experimental data published in patent US12059398B2, “Compositions of 1,3-butanediol and beta-hydroxybutyric acid to provide optimal therapeutic ketosis” (Health Via Modern Nutrition Inc., priority 2022, dated 2024).

What was measured:
[1] = Blood D-BHB pharmacokinetics comparison of ketogenic nutritional compositions after ingestion; format: in vivo; conditions: for Blood D-BHB: dose 0.5 g (total BDO or BHB)/bodyweight kg, ingestion
Description: FIG. 1 is a graph showing the blood D-BHB pharmacokinetics for eight ketogenic compositions, reporting blood D-BHB mM over a time period of six hours following ingestion of the ketogenic compositions.
The blood D-BHB pharmacokinetics produced by different ketogenic nutritional compositions were evaluated and compared. The nutritional compositions include: 100% R-BDO; 90 wt. % R-BDO+10 wt. % D-BHB (acid/salt); 85 wt. % R-BDO+15 wt. % D-BHB (acid/salt); 80 wt. % R-BDO+20 wt. % D-BHB (acid/salt); 75 wt. % R-BDO+25 wt. % D-BHB (acid/salt); 70 wt. % BDO+30 wt. % D-BHB; 60 wt. % BDO+40 wt. % D-BHB; and 50% BDO+50% D-BHB via R-1,3 BDO−D-BHB monoester. The compositions were administered at a dose of 0.5 g (total BDO or BHB excluding mineral or base pairs)/bodyweight kg.
The nutritional compositions include: 100% R-BDO; 90 wt. % R-BDO+10 wt. % D-BHB (acid/salt); 85 wt. % R-BDO+15 wt. % D-BHB (acid/salt); 80 wt. % R-BDO+20 wt. % D-BHB (acid/salt); 75 wt. % R-BDO+25 wt. % D-BHB (acid/salt); 70 wt. % BDO+30 wt. % D-BHB; 60 wt. % BDO+40 wt. % D-BHB; and 50% BDO+50% D-BHB via R-1,3 BDO−D-BHB monoester.
By integrating over time rather than looking at individual concentration measurements, a more accurate estimate of the overall exposure to the drug is obtained.

[2] = tested on: potassium channels and nitric oxide synthase; conditions: cited from earlier work
[3] = dose 0.5 g/bodyweight kg, six hours following ingestion

| Compound | Blood D-BHB ([1]; 0 minutes) | Blood D-BHB ([1]; 60 minutes) | Blood D-BHB ([1]; 120 minutes) | Blood D-BHB ([1]; 180 minutes) | Blood D-BHB ([1]; 240 minutes) | Blood D-BHB ([1]; 300 minutes) | Blood D-BHB ([1]; 360 minutes) | Duration of Blood D-BHB Concentrations between 1 mM and 2.5 mM [1, 3] | Total AUC mM × minutes in optimal therapeutic ketosis range of 1-2.5 mM [1, 3] | Effect on age-associated endothelial-dependent and -independent dysfunction ([2]; not associated with increased blood BHB concentration) | Direct vasodilator mechanism ([2]; through activation of potassium channels and nitric oxide synthase) |
| --- | --- | --- | --- | --- | --- | --- | --- | --- | --- | --- | --- |
| R-1,3 BDO−D-BHB monoester | 0.3 mM | 4.3 mM | 1.9 mM | 1.3 mM | 0.5 mM | 0.3 mM | 0.2 mM | 158 min | 98.3 mM·min | – | – |
| C[C@@H](O)CCO [100% R-1,3-BDO (natural), R-1,3-butanediol] | – | – | – | – | – | – | – | – | – | sufficient to reverse age-associated endothelial-dependent and -independent dysfunction | predominantly an endothelium-dependent vasodilator |
